Reference: US20070167631A1, “Novel herbicides” (priority 2003, published 2007)

Legend:
Maize [1] = test: Comparison test with prior art compound B, post-emergence herbicidal action (Example B5); type: in vivo; conditions: 125 g/ha
Description: (§1) The post-emergence herbicidal action of compound no. 1.096 according to the invention was compared with compound B, which is described as compound no. 2.088 on page 83,

Ipomea [2] = test: as above; type: in vivo; conditions: 125 g/ha, rating scale 10=total damage, 0=no action
Description: as §1

Stellaria [3] = test: as above; type: in vivo; conditions: 125 g/ha, rating scale 10=total damage, 0=no action
Description: as §1

Wheat [4] = test: as above; type: in vivo; conditions: 125 g/ha
Description: as §1

Galium [5] = test: as above; type: in vivo; conditions: 125 g/ha, rating scale 10=total damage, 0=no action
Description: as §1

Polygonum = test: as above; type: in vivo; conditions: 125 g/ha, rating scale 10=total damage, 0=no action
Description: as §1

Maize [6] = test: Comparison test with prior art compound A, post-emergence herbicidal action (Example B4); type: in vivo; conditions: 125 g/ha, crop plant, rating scale 10=total damage, 0=no action
Description: (§2) The post-emergence herbicidal action of compound no. 1.095 according to the invention was compared with compound A, which is described as compound no.

Stellaria [7] = test: as above; type: in vivo; conditions: 125 g/ha, rating scale 10=total damage, 0=no action
Description: as §2

Wheat [8] = test: as above; type: in vivo; conditions: 125 g/ha, crop plant, rating scale 10=total damage, 0=no action
Description: as §2

Sinapis = test: as above; type: in vivo; conditions: 125 g/ha, rating scale 10=total damage, 0=no action
Description: as §2

Sida [9] = test: as above; type: in vivo; conditions: 125 g/ha, rating scale 10=total damage, 0=no action
Description: as §2

Panicum [10] = test: Post-emergence herbicidal action (Example B2); type: in vivo; conditions: 250 g/ha, after about 18 days, rating scale 10=total damage, 0=no action
Procedure, shortened: (§3)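 4–6-leaf plants, greenhouse, standard soil; spray 125 / 250 g a.i./ha (500 L water/ha) as aqueous suspension (25% WP) or emulsion (25% EC); grow on ~18 d; score 0–10, 10 = total kill.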

Amaranthus [11] = test: Post-emergence herbicidal action (Example B2); type: in vivo; conditions: 250 g/ha, after about 18 days, rating scale 10=total damage, 0=no action
Procedure, shortened: as §3

Stellaria [12] = test: Post-emergence herbicidal action (Example B2); type: in vivo; conditions: 250 g/ha, after about 18 days, rating scale 10=total damage, 0=no action
Procedure, shortened: as §3

Echinochloa [13] = test: Post-emergence herbicidal action (Example B2); type: in vivo; conditions: 250 g/ha, after about 18 days, rating scale 10=total damage, 0=no action
Procedure, shortened: as §3

Euphorbia = test: Post-emergence herbicidal action (Example B2); type: in vivo; conditions: 250 g/ha, after about 18 days, rating scale 10=total damage, 0=no action
Procedure, shortened: as §3

Chenopodium [14] = test: Post-emergence herbicidal action (Example B2); type: in vivo; conditions: 250 g/ha, after about 18 days, rating scale 10=total damage, 0=no action
Procedure, shortened: as §3

Xanthium = test: Post-emergence herbicidal action (Example B2); type: in vivo; conditions: 250 g/ha, after about 18 days, rating scale 10=total damage, 0=no action
Procedure, shortened: as §3

Panicum [15] = test: Pre-emergence herbicidal action (Example B1); type: in vivo; conditions: 250 g/ha, after 4 weeks, rating scale 10=total damage, 0=no action
Method: (§4) Monocotyledonous and dicotyledonous test plants are sown in standard soil in pots or seed trays. Immediately after sowing, the test compounds, in the form of an aqueous suspension (prepared from a wettable powder (Example F3, b) according to WO 97/34485) or in the form of an emulsion (prepared from an emulsifiable concentrate (Example F1, c) according to WO 97/34485), are applied by spraying in a concentration of 250 g/ha. The test plants are then grown in a greenhouse under optimum conditions. After a test duration of 4 weeks, the test is evaluated in accordance with a scale of eleven ratings (10=total damage, 0=no action). Ratings of from 10 to 7 (especially from 10 to 8) indicate very good to good herbicidal action.

Amaranthus [16] = test: Pre-emergence herbicidal action (Example B1); type: in vivo; conditions: 250 g/ha, after 4 weeks, rating scale 10=total damage, 0=no action
Method: as §4

Abutilon = test: Pre-emergence herbicidal action (Example B1); type: in vivo; conditions: 250 g/ha, after 4 weeks, rating scale 10=total damage, 0=no action
Method: as §4

Echinochloa [17] = test: Pre-emergence herbicidal action (Example B1); type: in vivo; conditions: 250 g/ha, after 4 weeks, rating scale 10=total damage, 0=no action
Method: as §4

Chenopodium [18] = test: Pre-emergence herbicidal action (Example B1); type: in vivo; conditions: 250 g/ha, after 4 weeks, rating scale 10=total damage, 0=no action
Method: as §4

Scirpus = test: Pre-emergence herbicidal action (Example B1); type: in vivo; conditions: 250 g/ha, after 4 weeks, rating scale 10=total damage, 0=no action
Method: as §4

Digitaria [19] = test: Pre-emergence herbicidal action (Example B1); type: in vivo; conditions: 250 g/ha, after 4 weeks, rating scale 10=total damage, 0=no action
Method: as §4

Amaranthus [20] = test: Microscreen, post-emergence herbicidal action (Example B3); type: in vivo; conditions: 250 g/ha, evaluated after 9 or 13 days, scale of eleven ratings (10=total damage, 0=no action)
Method: (§5) Example B3 Microscreen, Post-Emergence Herbicidal Action Monocotyledonous and dicotyledonous test plants are sown in sterilised standard soil in seed trays each having 96 cells. […] The plants are grown on in the climatic chamber until the test is evaluated after 9 or 13 days. The test is evaluated in accordance with a scale of eleven ratings (10=total damage, 0=no action). Ratings of from 10 to 7 (especially from 10 to 8) indicate very good to good herbicidal action.

Solanum = test: as above; type: in vivo; conditions: 250 g/ha, evaluated after 9 or 13 days, scale of eleven ratings (10=total damage, 0=no action)
Method: as §5

Nasturtium = test: as above; type: in vivo; conditions: 250 g/ha, evaluated after 9 or 13 days, scale of eleven ratings (10=total damage, 0=no action)
Method: as §5

Stellaria [21] = test: as above; type: in vivo; conditions: 250 g/ha, evaluated after 9 or 13 days, scale of eleven ratings (10=total damage, 0=no action)
Method: (§6) Example B3 Microscreen, Post-Emergence Herbicidal Action Monocotyledonous and dicotyledonous test plants are sown in sterilised standard soil in seed trays each having 96 cells. After 8 to 9 days' cultivation under controlled conditions in a climatic chamber (cultivation at 17/23° C.; 13 hours' light; 50-60% humidity; after application at 19/24° C.), the plants are treated with an aqueous spray solution of 1000 mg/l of the active ingredient used ([…]; incl. 10% DMSO as solvent). The plants are grown on in the climatic chamber until the test is evaluated after 9 or 13 days. The test is evaluated in accordance with a scale of eleven ratings (10=total damage, 0=no action). Ratings of from 10 to 7 (especially from 10 to 8) indicate very good to good herbicidal action.

Digitaria [22] = test: as above; type: in vivo; conditions: 250 g/ha, evaluated after 9 or 13 days, scale of eleven ratings (10=total damage, 0=no action)
Method: as §6

Bromus = test: Comparison test with prior art compound B, post-emergence herbicidal action (Example B5); type: in vivo; conditions: 125 g/ha, rating scale 10=total damage, 0=no action
Description: as §1

Sida [23] = test: as above; type: in vivo; conditions: 125 g/ha, rating scale 10=total damage, 0=no action
Description: as §1

Ipomea [24] = test: Comparison test with prior art compound A, post-emergence herbicidal action (Example B4); type: in vivo; conditions: 125 g/ha, rating scale 10=total damage, 0=no action
Description: as §2

Amaranthus [25] = test: as above; type: in vivo; conditions: 125 g/ha, rating scale 10=total damage, 0=no action
Description: as §2

Galium [26] = test: as above; type: in vivo; conditions: 125 g/ha, rating scale 10=total damage, 0=no action
Description: as §2

[27] = crop plant, rating scale 10=total damage, 0=no action

Row | SMILES | Post-emergence action: Panicum (Panicum [10]) | Post-emergence action: Amaranthus (Amaranthus [11]) | Post-emergence action: Stellaria (Stellaria [12]) | Post-emergence action: Echinochloa (Echinochloa [13]) | Post-emergence action: Euphorbia (Euphorbia) | Post-emergence action: Chenopodium (Chenopodium [14]) | Post-emergence action: Xanthium (Xanthium) | Pre-emergence action: Panicum (Panicum [15]) | Pre-emergence action: Amaranthus (Amaranthus [16]) | Pre-emergence action: Abutilon (Abutilon) | Pre-emergence action: Echinochloa (Echinochloa [17]) | Pre-emergence action: Chenopodium (Chenopodium [18]) | Pre-emergence action: Scirpus (Scirpus) | Pre-emergence action: Digitaria (Digitaria [19]) | further results
1 | COc1nc(C(=O)C2=C(O)C3CCC(C3)C2=O)ccc1C(F)(F)F (stereo not shown) [B, reference compound] |  |  |  |  |  |  |  |  |  |  |  |  |  |  | Post-emergence herbicidal action: Maize (Maize [1]; [27]): 2; phytotoxicity to maize (Maize [1]; post-emergence): 20%; Post-emergence herbicidal action: Ipomea (Ipomea [2]): 6; Post-emergence herbicidal action: Stellaria (Stellaria [3]): 6; Post-emergence herbicidal action: Wheat (Wheat [4]; [27]): 2; phytotoxicity to wheat (Wheat [4]; post-emergence): 20%; Post-emergence herbicidal action: Galium (Galium [5]): 4; Post-emergence herbicidal action: Polygonum (Polygonum): 4
2 | O=C1CCCC(O)=C1C(=O)c1ncc(C(F)(F)F)cc1Cl [A, reference compound] |  |  |  |  |  |  |  |  |  |  |  |  |  |  | Post-emergence herbicidal action: Maize (Maize [6]): 0; Post-emergence herbicidal action: Stellaria (Stellaria [7]): 9; Post-emergence herbicidal action: Wheat (Wheat [8]): 0; Post-emergence herbicidal action: Sinapis (Sinapis): 6; Post-emergence herbicidal action: Sida (Sida [9]): 2
3 | O=C1CCCC(O)=C1C(=O)c1ccc(C(F)(F)F)c(N2CCSCC2)n1 [Compound 1.079] | 3 | 8 | 10 | 7 | 8 | 10 | 7 | 10 | 10 | 10 | 10 | 9 | 4 | 10 | 
4 | COc1nc(C(=O)C2=C(O)CCCC2=O)ccc1C(F)(F)F [Compound 1.096] |  |  |  |  |  |  |  |  |  |  |  |  |  |  | Amaranthus, herbicidal action rating (Amaranthus [20]): 9; Solanum, herbicidal action rating (Solanum): 9; Nasturtium, herbicidal action rating (Nasturtium): 10; Stellaria, herbicidal action rating (Stellaria [21]): 9; Digitaria, herbicidal action rating (Digitaria [22]): 8; melting point: 80 to 81 °C; Post-emergence herbicidal action: Ipomea (Ipomea [2]): 7; Post-emergence herbicidal action: Stellaria (Stellaria [3]): 8; Post-emergence herbicidal action: Galium (Galium [5]): 8; Post-emergence herbicidal action: Bromus (Bromus): 5; Post-emergence herbicidal action: Sida (Sida [23]): 7; Post-emergence herbicidal action: Polygonum (Polygonum): 8
5 | O=C1CCCC(O)=C1C(=O)c1ccc(C(F)(F)F)c(Cl)n1 [Compound 1.095] |  |  |  |  |  |  |  |  |  |  |  |  |  |  | Amaranthus, herbicidal action rating (Amaranthus [20]): 7; Solanum, herbicidal action rating (Solanum): 7; Nasturtium, herbicidal action rating (Nasturtium): 9; Stellaria, herbicidal action rating (Stellaria [21]): 7; Digitaria, herbicidal action rating (Digitaria [22]): 3; Post-emergence herbicidal action: Maize (Maize [6]): 0; Post-emergence herbicidal action: Ipomea (Ipomea [24]): 7; Post-emergence herbicidal action: Amaranthus (Amaranthus [25]): 7; Post-emergence herbicidal action: Stellaria (Stellaria [7]): 8; Post-emergence herbicidal action: Wheat (Wheat [8]): 0; Post-emergence herbicidal action: Sinapis (Sinapis): 7; Post-emergence herbicidal action: Galium (Galium [26]): 6; Post-emergence herbicidal action: Sida (Sida [9]): 5
6 | CC1CC(=O)C(C(=O)c2ccc(C(F)(F)F)c(N3CCOCC3)n2)=C(O)C1 (stereo not shown) [Compound 3.069] | 8 | 8 | 7 | 7 | 5 | 10 | 8 | 10 | 10 | 10 | 10 | 6 | 5 | 10 | 
7 | Cc1nc(C(=O)C2=C(O)C(C)(C)C(=O)C(C)(C)C2=O)ccc1C#N [Compound 2.209] | 9 | 8 | 10 | 8 | 8 | 6 | 9 | 10 | 9 | 10 | 10 | 9 | 2 | 8 | 
8 | COCCOCc1nc(C(=O)C2=C(O)CCCC2=O)ccc1C(F)(F)F [Compound 1.126] | 7 | 8 | 8 | 7 | 8 | 8 | 8 | 9 | 10 | 10 | 2 | 10 | 8 | 6 | 
